Laboratory results as given in patent publication EP0646315B1, “Novel compositions containing an auxin transport inhibitor and another herbicide” (Novartis AG, priority 1993, dated 1995).

Experiments:
pigweed [1] = assay: Field trial, post-emergent tank mix in field corn; assay type: in vivo, Amaranthus sp.; conditions: post-emergent 35 days after seeding, weeds 41 to 89 cm, foliar broadcast tank mix, (z) 0.275 kg/ha, (a) 0.011 kg/ha, Aquagene 0.9 l/ha where named
Description: (§1) A field trial was conducted against velvetleaf and pigweed in field corn. Application was post-emergent 35 days after seeding with weeds at a height of 41 to 89 cm. Application was of tank mixed formulation by foliar applied broadcast treatment. Compound (a) above was tank mixed as is. Compound (z) above was tank mixed in the form of a 0.5 kg/l s.c. commercially available under the trademark […]®. Aquagene is a commercially available surfactant, (Universal Coop Incorporated, Minneapolis, MN).

velvetleaf [2] = assay: Field trial, post-emergent tank mix in field corn; assay type: in vivo, Abutilon theophrasti; conditions: post-emergent 35 days after seeding, weeds 41 to 89 cm, foliar broadcast tank mix, (z) 0.275 kg/ha, (a) 0.011 kg/ha, Aquagene 0.9 l/ha where named
Description: as §1

morningglory = assay: Greenhouse test, post-emergence; assay type: in vivo, Ipomoea sp.; conditions: treatment 10 days post-emergence, evaluation 18 days after treatment, (e) 0.01 kg/ha, (z) 0.02 kg/ha, 3 repetitions
Description: (§2) A greenhouse test was conducted against velvetleaf, pigweed, morningglory and cocklebur. Treatment was at 10 days post-emergence and evaluation at 18 days after treatment. Compound (e) was formulated as technical a.i. in a mixture of equal parts acetone and water with 1/2% surfactant. Compound (z) was used in the commercially available form […]® herbicide (=480g/L a.i. equivalent) in water with 1/2% surfactant. The tank mixes were applied in a linear spray chamber with 3 repetitions per concentration.

cocklebur = assay: Greenhouse test, post-emergence; assay type: in vivo, Xanthium strumarium; conditions: treatment 10 days post-emergence, evaluation 18 days after treatment, (e) 0.01 kg/ha, (z) 0.02 kg/ha, 3 repetitions
Description: as §2

velvetleaf [3] = assay: Greenhouse test, post-emergence; assay type: in vivo, Abutilon theophrasti; conditions: treatment 10 days post-emergence, evaluation 18 days after treatment, (e) 0.01 kg/ha, (z) 0.02 kg/ha, 3 repetitions
Description: as §2

pigweed [4] = assay: Greenhouse test, post-emergence; assay type: in vivo, Amaranthus sp.; conditions: treatment 10 days post-emergence, evaluation 18 days after treatment, (e) 0.01 kg/ha, (z) 0.02 kg/ha, 3 repetitions
Description: as §2

Compound	% of control Pigweed (pigweed [1]) [%]	% of control Velvetleaf (velvetleaf [2]) [%]	% control Morningglory (morningglory) [%]	% control Cocklebur (cocklebur) [%]	activity at 275 g/ha (pigweed [1]; Amaranthus retroflexus, 840 h, read-out: % of control Pigweed) [%]	% control Velvetleaf (velvetleaf [3]) [%]	activity at 275 g/ha (velvetleaf [2]; Abutilon theophrasti, 840 h, read-out: % of control Velvetleaf) [%]	% control Pigweed (pigweed [4]) [%]
2-acetylnicotinic acid 4-(3,5-difluorophenyl)semicarbazone 2-(2-hydroxyethoxy)ethyl-ammonium salt [Compound (a)]	18	13	–	–	–	–	–	–
COc1c(Cl)ccc(Cl)c1C(=O)O [Compound (z), dicamba]	–	–	35	75	30	35	18	35
